Measurements reported in patent US20230241226A1, “COMPOUNDS FOR TARGETED DEGRADATION OF CARRIER PROTEINS AND USES THEREOF” (CeMM - Forschungszentrum für Molekulare Medizin GmbH, priority 2019, published 2023).
Residues, ends and D or L forms follow the SMILES beside them. *: point of attachment. Cbz = O=C(OCc1ccccc1)*

How the values were obtained:
[1] = target: T1, SLC9A1 (Homo sapiens, UniProt P19634); experiment: Degradation of endogenous SLC9A1 (immunoblot); assay type: cell-based; conditions: WT KBM7; 0.5 µM d9A1-2 16 hours; bortezomib 0.25 µM, MG-132 1 µM, MLN4924 1 µM, pomalidomide 1 µM, bafilomycin A1 10 µM
T1 construct: endogenous in cells; host or cells: HAP1, KBM7 (WT and CRBN knockout)
T1 sequence (P19634 whole entry): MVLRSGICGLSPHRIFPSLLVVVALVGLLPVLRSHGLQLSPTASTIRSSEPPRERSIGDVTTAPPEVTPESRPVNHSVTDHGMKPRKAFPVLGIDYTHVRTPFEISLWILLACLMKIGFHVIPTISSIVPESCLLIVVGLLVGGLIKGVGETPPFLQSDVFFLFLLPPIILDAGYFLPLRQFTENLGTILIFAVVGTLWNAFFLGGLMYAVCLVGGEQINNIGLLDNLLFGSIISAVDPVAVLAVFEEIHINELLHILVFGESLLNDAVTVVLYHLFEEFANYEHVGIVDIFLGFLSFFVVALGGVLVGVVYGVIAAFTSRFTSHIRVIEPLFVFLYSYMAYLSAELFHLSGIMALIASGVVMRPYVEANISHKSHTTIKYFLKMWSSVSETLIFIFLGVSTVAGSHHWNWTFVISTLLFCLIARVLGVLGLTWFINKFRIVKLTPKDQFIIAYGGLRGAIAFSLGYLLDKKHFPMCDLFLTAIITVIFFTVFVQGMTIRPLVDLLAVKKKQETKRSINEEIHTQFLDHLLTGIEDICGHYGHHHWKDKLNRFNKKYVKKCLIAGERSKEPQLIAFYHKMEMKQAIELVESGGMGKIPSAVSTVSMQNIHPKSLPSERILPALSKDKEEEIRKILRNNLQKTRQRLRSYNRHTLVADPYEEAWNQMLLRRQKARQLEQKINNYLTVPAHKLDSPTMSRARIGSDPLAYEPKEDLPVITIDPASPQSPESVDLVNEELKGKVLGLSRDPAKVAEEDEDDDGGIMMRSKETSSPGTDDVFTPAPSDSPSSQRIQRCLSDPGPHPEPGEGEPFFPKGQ
Experimental: (B) HAP1 and KBM7 cells were treated with different concentrations of d9A1-2.
(C)Both WT and CRBN knockout KBM7 cell lines were treated with 1 µM d9A1-2 for 16 hours.
(D) Chemical “rescue” of d9A1-2 driven degradation. WT KBM7 cell lines were treated with 0.5 µM d9A1-2 for 16 hours. These cells were also treated with bortezomib (bort. 0.25 µM), MG-132 (MG, 1 µM), MLN4924 (MLN,1 µM), pomalidomide (poma., 1 µM), or bafilomycin A1 (bafi., 10 µM). All molecules, apart from bafilomycin, could rescue SLC9A1 from degradation.
(B) HAP1 cells were treated with a dose curve of the warhead, d9A1-1, d9A1-2, d9A1-3, d9A1-4, for 24 hours.
(C) KBM7 cells were treated with varying concentrations of d9A1-2.
HEK293T, LS180 were obtained from ATCC (Manassas, VA, USA), HAP1 WT, HAP1 -/-SLC38A2 (HZGHC001975c003), HAP1 -/-SLC38A9 (HZGHC000777c011) were obtained from Horizon Genomics. Other cell lines utilized here: CAKI (a gift of Georg Winter’s lab), SW620, SW480 (both a gift from Walter Berger’s lab, Medical University Vienna), LOVO, HCT15 (both a gift from Chris Gasche), KBM7 (a gift from Thijn Brummelkamp’s lab), KBM7 -/- CRBN was described in Mayor-Ruiz et al. Cells were cultured, according to the ATCC recommendation in DMEM, RPMI or IMDM medium (Gibco) supplemented with 10% (v/v) FBS and antibiotics (100 U/ml penicillin and […] streptomycin). Knock-in single cell clones of dTAG-HA SLC38A2 HAP1 cell line were generated as previously described. For starvation, culture media was replaced with media without amino acids or FBS.
(§1) For immunoblotting, whole cell extracts were prepared using RIPA lysis buffer (25 mM Tris/HCl pH 7.6, 150 mM NaCl, 1% NP-40, 1% sodium deoxycholate, 0.1% SDS, EDTA-free protease inhibitor (Roche) and phosphatase inhibitors 2+3 (Sigma- Aldrich)). Cell extracts were incubated for 15 min on ice in 50 µL RIPA buffer. Lysates were cleared by centrifugation (20,000 g, 10 min, 4° C.). Protein extracts were quantified and normalized using the BCA assay (Thermo Scientific). Where indicated, cleared lysates where treated with the enzyme PNGase (NEB) to deglycosylate the proteins. Lämmli Sample Buffer 4x was added to protein extract samples without boiling. Cell lysates were run on SDS-polyacrylamide gel in tris-glycine running buffer and transferred to nitrocellulose membranes Amersham Protran 0.45 µm (GE Healthcare), according to standard methods. The membranes were incubated with the antibodies indicated below and visualized with horseradish peroxidase-conjugated secondary antibodies (described below) using the ECL Western blotting system (Thermo Scientific). The following antibodies were used: GAPDH (Santa Cruz, sc-365062), Actin (Cyoskeleton Inc., #AAN01), HA (Covance, cat #MMS-101R), HA (Cell Signaling, #3724), HA7-HRP (Sigma, H6533), HA (Roche, #11867423001), SLC9A1 (Santa Cruz, sc-136239), SLC2A1 (Cell Signaling, #12939), SLC38A1 (Cell Signaling, #36057). Secondary antibody for imaging goat anti-Rat IgG Alexa Fluor 488 (ThermoFisher, A11006). The following secondary antibodies were used for immunoblotting: goat anti-mouse HRP (115-035-003, Jackson ImmunoResearch) and goat anti-rabbit HRP (111-035-003, Jackson ImmunoResearch).
MG132, Bortezomib, Pomalidomide were obtained from Selleckchem. MLN4924 was obtained from MedchemExpress. Bafilomycin was obtained from Enzo Life Sciences. dTAG13 was a generous gift from the Nathanael Gray laboratory, Dana Farber Cancer Institute. The d9A1 degrader series (warhead, d9A1-1 to d9A1-4) was synthesized by Wuxi AppTec. All chemicals were dissolved in DMSO (Sigma-Aldrich) and utilized at the concertation described in respective figures.

[2] = system: dTAG-HA SLCs; experiment: dTAG-driven SLC degradation, statements across SLCs (temporal control, chemical rescue); assay type: cell-based, human; conditions: HAP1; 0.5 µM dTAG7 12 or 18 hours; MLN4924 1 µM, pomalidomide 10 µM, bortezomib 1 µM, MG-132 1 µM, bafilomycin A1 2.5 µM
Experimental: (D)Chemical “rescue” of dTAG-driven degradation of SLCs. HAP1 cell lines expressing dTAG-HA SLC1A5 or dTAG-HA SLC38A9 were treated with 0.5 µM dTAG7 for 12 or 18 hours, respectively. These cells were also treated with chloroquine (CQ, 50 µM), bortezomib (bort., 1 µM), MG-132 (MG, 1 µM), MLN4924 (MLN, 1 µM), pomalidomide (poma., 10 µM), or bafilomycin A1 (bafi., 2.5 µM). SLC degradation was rescued by inhibiting CRL activity or the proteasome, but not by inhibiting the lysosome machinery.
Western blotting with antibodies against the HA-tag and the total protein mirrored the observed pattern.
(D) Chemical “rescue” of dTAG driven degradation. HAP1 cell lines expressing dTAGHA SLC2A3, 39A7, […], and MTCH2 were treated with 0.5 µM dTAG7 for 12 hours. A cell line expressing dTAG-HA SLC38A2 was treated with 0.5 µM dTAG7 for 18 hours. These cells were treated with MLN4924 (MLN, 1 µM), pomalidomide (poma., 10 µM), or bafilomycin A1 (bafi., 2.5 µM) to monitor the inhibition of degradation.
as §1
SLCs were ectopically expressed as fusions to a mutated FKBP domain, also known as the dTAG system. In brief, a dTAGed protein is amenable to degradation by specific chimeric degrader molecules (e.g. dTAG7/dTAG13) that simultaneously bind to the dTAG and the CRL4CRBN E3 ligase, inducing molecular proximity and ensuing degradation by the proteasome. Given that SLCs were expressed in all cellular compartments, the amenability of differentially located SLCs to targeted proteolysis was tested (FIG. 1A, upper graph). Each of the tested SLCs was stably expressed in HAP1 cells, and subcellular localization was assessed by immunofluorescence microscopy (FIG. 1B). In detail, SLCs located at the cell surface (SLC1A5, SLC38A1, SLC2A1, SLC2A3, SLC16A1, SLC4A4, SLC7A3), cell surface and vesicles (SLC38A2), lysosome (SLC38A9), Golgi (SLC35B2, SLC33A1), mitochondria (SLC25A26, SLC25A1, and MTCH2) and endoplasmic reticulum (SLC39A7, SLC30A9) were assayed. Cellular treatment with a specific degrader molecule (dTAG7 or dTAG13) led to identification of SLCs expressed at cell surface, endoplasmic reticulum and lysosome that were amenable to targeted degradation (FIGS. 1C, 5A). The dTAG could be placed on either N- or C-terminus of the SLC, if both face the cytoplasm (FIG. 5B), as exemplified by SLC2A3. […]

SMILES | effect of co-treatment on d9A1-2 driven SLC9A1 degradation (chemical rescue) [1] | effect of co-treatment on dTAG7 mediated SLC degradation (chemical rescue) [2]
Nc1cccc2c1C(=O)N(C1CCC(=O)NC1=O)C2=O (stereo not drawn) [pomalidomide] | blocked d9A1-2-induced degradation of SLC9A1 | prevented measurable SLC degradation
CO/C1=C\C(C)=C\[C@@H](C)[C@@H](O)[C@@H](C)C/C(C)=C/C=C/[C@H](OC)[C@@H]([C@@H](C)[C@@H](O)[C@H](C)[C@@]2(O)C[C@@H](O)[C@H](C)[C@@H](C(C)C)O2)OC1=O [bafilomycin A1] |  | degradation appeared unaffected
CC(C)C[C@@H](C=O)NC(=O)[C@H](CC(C)C)NC(=O)[C@H](CC(C)C)NC(=O)OCc1ccccc1 [MG132] (Cbz-Leu-Leu-Leu-aldehyde) | rescued SLCs degradation | rescued SLCs degradation
CC(C)C[C@H](NC(=O)[C@H](Cc1ccccc1)NC(=O)c1cnccn1)B(O)O [bortezomib] | rescued SLCs degradation | rescued SLCs degradation
NS(=O)(=O)OC[C@@H]1C[C@@H](n2ccc3c(N[C@H]4CCc5ccccc54)ncnc32)C[C@@H]1O [MLN4924] | abrogated | blocked
